Test results reported in patent US20240293337A1, “USE OF DOXERCALCIFEROL TO TREAT AND/OR PREVENT UTERINE FIBROIDS OR POLYCYSTIC OVARY SYNDROME” (priority 2023, published 2024).

Legend:
[1] = Serum measurements in PDX UF mice (liver enzymes, calcium, AMH); type: in vivo, NOD/SCID mice
Method: (§1) After xenograft mice undergo intraperitoneal injection of doxercalciferol (300 ng/kg, 3 times per week) or saline for 6 weeks. Body weight is monitored weekly during doxercalciferol treatment. Six weeks after doxercalciferol treatment insulin resistance is assessed using GTT and then mice are anesthetized and blood is collected to measure liver enzyme and AMH levels, ovary tissue is removed for histological analysis, total RNA is extracted for sequencing, and tumor size is measured with a digital caliper.
Blood is collected from all groups by cardiac exsanguination under isoflurane anesthesia: serum is separated and stored at −80° C. Serum levels are measured for AMH, ALT, and total bilirubin.

[2] = Serum chemistry in PCOS mice; type: in vivo, C57BL/6 mice; details: PCOS mice treated with doxercalciferol, n 7
Method: Five weeks after placebo or LTZ pellet implantation, mice undergo intraperitoneal injection of doxercalciferol (300 ng/kg) or saline 3 times per week for 6 weeks. Six weeks after doxercalciferol treatment, the mice are anesthetized and ovary, uterus, gonadal white fat, kidney, and liver tissue are collected. Each of these tissues are fixed in 4% paraformaldehyde for further histological analysis.
Blood is collected from all groups by cardiac exsanguination under isoflurane anesthesia: serum is separated and stored at −80° C. Serum chemistry analysis including BUN, ALT, ALP, AST, TBIL, calcium, TP, ALB, and NA+ is performed in University of Chicago Animal Resource Center (UC ARC) with VETSCAN® VS2 Chemistry Analyzer (Zoetis).

H295R cells [3] = experiment: H295R theca-like cells, cell morphology and cell number after 24 h treatment; type: cell-based, human; details: 100 nM
Method: Human adrenocortical-carcinoma cells (H295R cells) are used as an in vitro cell culture model of ovarian theca cells to assess androgen production. H295R cells are purchased from ATCC (Manassas, VA, USA, cat. no. ATCC® CRL-2128™) and cultured per the recommended guidelines. These cells are isolated from a donor. Briefly, H295R cells are cultured in flasks pre-coated with extracellular matrix (Gibco, USA, cat. no. S-006-100) with DMEM/F12 (Gibco, cat. no. 21041025) and 2.5% Nu-Serum (Corning, USA). The cells are subcultured at a ratio of 1:4, resulting in a cell density of approximately 3×10^6 in T75 flasks.
(§2) H295R cells are subcultured in T75 flasks for 24 hours. Cells are then treated for 24 hours with serum free basal media as a control or doxercalciferol at 1 nM, 10 nM, or 100 nM diluted in basal media (serum-free) at a 1:1 ratio. After the incubation period, cells are imaged and analyzed for morphology and cell count. Cells are then collected for analysis of steroidogenesis-related gene expression. Cell culture media are collected and used for testosterone quantification using ELISA based Testosterone Parameter Assay Kit (R&D system) per the manufacturer's protocol. The testosterone level is quantified using a multimode microplate reader system, Varioskan LUX Multimode Microplate Reader (Thermo Fisher).

[4] = system: patient derived xenograft (PDX) mouse model of uterine fibroids (UF); experiment: Tumor growth in patient derived xenograft (PDX) mouse model of uterine fibroids; type: in vivo, NOD/SCID mice; details: PDX UF mice, 300 ng/kg i.p. 3 times per week, 6 weeks
Method: Female NOD/SCID are housed in a vivarium for 1 week under specific pathogen-free conditions. The animal experiment protocol for this study is approved, and all animal experiments are performed in compliance with policies and guidelines for use of laboratory animals. UF samples are obtained from African-American female patients with UF (n=4). This human UF tissue is xenografted into female mice that have been hormonally supplemented with progesterone and estradiol (n=2 mice/patient). Tumor size is measured at implantation. After xenograft mice undergo intraperitoneal injection of doxercalciferol (300 ng/kg, 3 times per week) or saline for 6 weeks. Body weight is monitored weekly during doxercalciferol treatment. Six weeks after doxercalciferol treatment insulin resistance is assessed using GTT and then mice are anesthetized and blood is collected to measure liver enzyme and AMH levels, ovary tissue is removed for histological analysis, total RNA is extracted for sequencing, and tumor size is measured with a digital caliper.

ovary = experiment: Ovarian follicle counts in PDX UF mice (H&E histology); type: in vivo, NOD/SCID mice; details: vs untreated control
Method: as §1
Ovary tissue is collected and fixed in 4% paraformaldehyde. Tissue sections are stained with hematoxylin-eosin (H&E). Histological analyses are performed.

[5] = Body weight change in PDX UF mice; type: in vivo, NOD/SCID mice; details: 300 ng/kg i.p. 3 times per week, 6 weeks
Method: as §1

SW872 cells = experiment: Adipogenesis gene expression in SW872 cells (qRT-PCR array); type: cell-based, human; details: 10 nM, 24 hours
Method: SW872 cells are subcultured in T75 flasks for 24 hours. Cells are then treated for 24 hours with serum free basal media as a control or doxercalciferol at 1 nM, 10 nM, or 100 nM diluted in basal media (serum-free). After the incubation period, cells are imaged and analyzed for morphology and cell count. Cells are then collected for analysis of adipogenesis-related gene expression and cell culture media are collected for analysis of obesity related cytokines. RNA is extracted from SW872 cells treated with doxercalciferol. RNA extraction is done using TRIzol (Invitrogen, USA) according to the manufacturer's instructions. The concentration and purity of the extracted RNA is checked using a NanoDrop spectrometer (Thermo Scientific, MA, USA). Quantitative real-time PCR (qPCR) of adipogenesis related genes in SW872 cells is performed using a RT^2 Profiler™ PCR Array Human Apidogenesis according to the manufacturer's instructions (Qiagen, Sciences Inc., MD, USA).

H295R cells [6] = experiment: Testosterone production in H295R cell conditioned media (ELISA); type: cell-based, human; details: 24 hours
Method: as §2

In the case of `C=C1/C(=C\C=C2/CCC[C@]3(C)[C@@H]([C@H](C)/C=C/[C@H](C)C(C)C)CC[C@@H]23)C[C@@H](O)C[C@@H]1O` [doxercalciferol], the “calcium levels vs reference range for NOD CB17-Prkdc^scid/NcrCrl mice” value [1] is reported as “overlap with the reference range”, the “calcium level, Mean” value ([1]; N 4) is reported as 11.93 and the ALT level ([1]; vs control) is reported as “no significant effect”. For the same compound, the AMH serum levels ([1]; vs control) was “no significant effect”, the AST level ([1]; vs control) was “no significant effect” and the total bilirubin level ([1]; vs control) was “no significant effect”. For the same compound, the “ALB, Mean” value [2] was 3.9 g/dL, the “ALP, Mean” value [2] was 76 U/L and the “ALT, Mean” value [2] was 66 U/L. For the same compound, the “AST, Mean” value [2] was 144 U/L, the “BUN, Mean” value [2] was 22 mg/dL and the “CA, Mean” value [2] was 12.9 mg/dL. The “NA+, Mean” value [2] was 149 mmol/L, the “TBIL, Mean” value [2] was 0.4 mg/dL and the “TP, Mean” value [2] was 4.7 g/dL. The cell morphology (H295R cells [3]) was “most of the cells in the 100 nM doxercalciferol treatment group are dead”, the cell number (H295R cells [3]; vs other groups) was “significantly fewer cells” and the “tumor growth (significant reduction, down to)” value [4] was 55.6%. The “number of follicles at the primordial, primary, secondary, or preantral phases” value (ovary) was “does not significantly affect”, the “total number of follicles in the ovary” value (ovary) was “does not significantly affect” and the “decrease in body weight” value [5] was 24%. For the same compound, the “CEBP relative gene expression” value (SW872 cells) was “significantly upregulated”, the “CEBPD relative gene expression” value (SW872 cells) was “significantly upregulated” and the “PRDM16 relative gene expression” value (SW872 cells) was “significantly downregulated”. For the same compound, the “RXRA relative gene expression” value (SW872 cells) was “significantly upregulated”, the “SREBF1 relative gene expression” value (SW872 cells) was “significantly downregulated” and the “WNT1 relative gene expression” value (SW872 cells) was “significantly downregulated”. For the same compound, the “WNT10B relative gene expression” value (SW872 cells) was “significantly downregulated”, the “expression of most adipogenesis genes” value (SW872 cells; not significant for most genes) was “downregulated” and the Testosterone production (H295R cells [6]; 1 nM) was “significantly decreased”. The Testosterone production (H295R cells [6]; 10 nM) was “not significantly changed” and the Testosterone production (H295R cells [6]; 100 nM) was “significantly decreased”.
